Measurements published in patent US11229623B2 (GlaxoSmithKline Intellectual Property (No.2) Limited, priority 2016, dated 2022).

Target: T1, human TRPV4 (Homo sapiens, UniProt Q9HBA0)
T1 construct: expressed in transfected cells; host or cells: BHK/AC9 cells transduced with BacMam virus
Assay: FLIPR assay for hTRPV4 expressed in BHK cells: inhibition of Agonist Compound-induced calcium signal
Type: cell-based
Conditions: hTRPV4 in BHK/AC9 cells, FLIPR calcium signal, agonist at EC80; reported as range class; read-out: IC50
Outline: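 BHK/AC9 cells transduced with BacMam human TRPV4 (MOI 78), plated 15,000 per well and cultured 24 h at 37° C. Loaded with 2 μM Fluo-4 AM plus 500 μM Brilliant Black in HBSS for 1-1.5 h at room temperature in the dark; intracellular calcium signal read by FLIPR fluorescence.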

T1 sequence (Q9HBA0 whole entry): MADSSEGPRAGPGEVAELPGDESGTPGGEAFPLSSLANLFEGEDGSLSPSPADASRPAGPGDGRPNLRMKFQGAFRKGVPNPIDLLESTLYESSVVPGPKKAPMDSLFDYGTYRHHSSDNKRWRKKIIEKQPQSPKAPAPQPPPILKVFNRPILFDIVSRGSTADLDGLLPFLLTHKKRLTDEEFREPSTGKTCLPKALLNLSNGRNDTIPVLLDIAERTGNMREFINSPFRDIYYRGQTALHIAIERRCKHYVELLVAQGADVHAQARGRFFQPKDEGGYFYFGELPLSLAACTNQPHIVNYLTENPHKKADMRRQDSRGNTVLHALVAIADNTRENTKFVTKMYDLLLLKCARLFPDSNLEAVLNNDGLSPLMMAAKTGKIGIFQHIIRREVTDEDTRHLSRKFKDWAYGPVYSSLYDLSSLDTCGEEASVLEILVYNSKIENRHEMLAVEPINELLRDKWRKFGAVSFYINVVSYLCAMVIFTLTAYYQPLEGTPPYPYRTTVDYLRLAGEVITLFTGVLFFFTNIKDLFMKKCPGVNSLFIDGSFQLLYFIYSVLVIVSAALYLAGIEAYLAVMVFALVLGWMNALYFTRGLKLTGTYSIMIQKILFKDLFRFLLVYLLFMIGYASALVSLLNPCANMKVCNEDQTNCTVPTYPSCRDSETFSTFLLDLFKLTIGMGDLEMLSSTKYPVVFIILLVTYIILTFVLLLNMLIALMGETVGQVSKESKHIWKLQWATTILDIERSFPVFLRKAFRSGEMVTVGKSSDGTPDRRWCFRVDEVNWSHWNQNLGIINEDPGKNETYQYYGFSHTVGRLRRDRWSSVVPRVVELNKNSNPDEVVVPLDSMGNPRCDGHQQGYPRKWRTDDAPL

SMILES | IC50 [nM]
Cc1nn(C)c(S(=O)(=O)N2C[C@H](Oc3ccc(C#N)c(F)c3)[C@](O)(CO)C2)c1Cl [Example 124, 4-(((3S,4R)-1-((4-chloro-1,3-dimethyl-1H-pyrazol-5-yl)sulfonyl)-4-hydroxy-4-(hydroxymethyl)pyrrolidin-3-yl)oxy)-2-fluorobenzonitrile] | 100 to 1000
N#Cc1ccc(O[C@H]2CN(S(=O)(=O)c3ccc(OC(F)F)nc3)C[C@@]2(O)CO)cc1F [Example 126, 4-(((3S,4R)-1-((6-(difluoromethoxy)pyridin-3-yl)sulfonyl)-4-hydroxy-4-(hydroxymethyl)pyrrolidin-3-yl)oxy)-2-fluorobenzonitrile] | 100 to 1000
N#Cc1ccc(O[C@H]2CN(S(=O)(=O)c3ccc(OC(F)(F)F)cn3)C[C@@]2(O)CO)cc1F [Example 127, 2-fluoro-4-(((3S,4R)-4-hydroxy-4-(hydroxymethyl)-1-((5-(trifluoromethoxy)pyridin-2-yl)sulfonyl)pyrrolidin-3-yl)oxy)benzonitrile] | 100 to 1000
N#Cc1ccc(O[C@H]2CN(S(=O)(=O)c3cnc(C(F)(F)F)nc3)C[C@@]2(O)CO)cc1F [Example 128, 2-fluoro-4-(((3S,4R)-4-hydroxy-4-(hydroxymethyl)-1-((2-(trifluoromethyl)pyrimidin-5-yl)sulfonyl)pyrrolidin-3-yl)oxy)benzonitrile] | 100 to 1000
N#Cc1ccc(O[C@H]2CN(S(=O)(=O)c3ccc(Cl)cn3)C[C@]2(O)CO)cc1F [Example 136, 4-(((3S,4S)-1-((5-chloropyridin-2-yl)sulfonyl)-4-hydroxy-4-(hydroxymethyl)pyrrolidin-3-yl)oxy)-2-fluorobenzonitrile] | 100 to 1000
N#Cc1ccc(O[C@H]2CN(S(=O)(=O)c3ccccc3C#N)C[C@]2(O)CO)cc1F [Example 137, 4-(((3S,4S)-1-((2-cyanophenyl)sulfonyl)-4-hydroxy-4-(hydroxymethyl)pyrrolidin-3-yl)oxy)-2-fluorobenzonitrile] | 10 to 100
N#Cc1ccc(O[C@H]2CN(S(=O)(=O)c3cccnc3C#N)C[C@]2(O)CO)cc1F [Example 140, 3-(((3S,4S)-4-(4-cyano-3-fluorophenoxy)-3-hydroxy-3-(hydroxymethyl)pyrrolidin-1-yl)sulfonyl)picolinonitrile] | 10 to 100
N#Cc1ccc(S(=O)(=O)N2C[C@H](Oc3ccc(C#N)c(F)c3)[C@@](O)(CO)C2)c(Cl)c1 [Example 141, 4-(((3S,4S)-1-((2-chloro-4-cyanophenyl)sulfonyl)-4-hydroxy-4-(hydroxymethyl)pyrrolidin-3-yl)oxy)-2-fluorobenzonitrile] | 10 to 100
N#Cc1ccc(O[C@H]2CN(S(=O)(=O)c3ccc(Cl)cc3Cl)C[C@]2(O)CO)cc1F [Example 142, 4-(((3S,4S)-1-((2,4-dichlorophenyl)sulfonyl)-4-hydroxy-4-(hydroxymethyl)pyrrolidin-3-yl)oxy)-2-fluorobenzonitrile] | 10 to 100
N#Cc1ccc(O[C@H]2CN(S(=O)(=O)c3ccc(F)cc3Br)C[C@]2(O)CO)cc1F [Example 144, 4-(((3S,4S)-1-((2-bromo-4-fluorophenyl)sulfonyl)-4-hydroxy-4-(hydroxymethyl)pyrrolidin-3-yl)oxy)-2-fluorobenzonitrile] | 10 to 100
COc1ccc(S(=O)(=O)N2C[C@H](Oc3ccc(C#N)c(F)c3)[C@@](O)(CO)C2)c(C#N)c1 [Example 145, 4-(((3S,4S)-1-((2-cyano-4-methoxyphenyl)sulfonyl)-4-hydroxy-4-(hydroxymethyl)pyrrolidin-3-yl)oxy)-2-fluorobenzonitrile] | 10 to 100
N#Cc1cc(C(F)(F)F)ccc1S(=O)(=O)N1C[C@H](Oc2ccc(Cl)cc2)[C@@](O)(CO)C1 [Example 146, 2-(((3S,4S)-4-(4-chlorophenoxy)-3-hydroxy-3-(hydroxymethyl)pyrrolidin-1-yl)sulfonyl)-5-(trifluoromethyl)benzonitrile] | 10 to 100
N#Cc1cc(F)ccc1S(=O)(=O)N1C[C@H](Oc2ccc(Cl)cc2)[C@@](O)(CO)C1 [Example 147, 2-(((3S,4S)-4-(4-chlorophenoxy)-3-hydroxy-3-(hydroxymethyl)pyrrolidin-1-yl)sulfonyl)-5-fluorobenzonitrile] | 10 to 100

More lines, now with the values ahead:

IC50 [nM] | SMILES
10 to 100 | Cc1ccc(S(=O)(=O)N2C[C@H](Oc3ccc(C#N)c(F)c3)[C@](O)(CO)C2)cc1F [Example 118, 2-fluoro-4-(((3S,4R)-1-((3-fluoro-4-methylphenyl)sulfonyl)-4-hydroxy-4-(hydroxymethyl)pyrrolidin-3-yl)oxy)benzonitrile]
0.1 to 10 | N#Cc1ccc(O[C@H]2CN(S(=O)(=O)c3ccccc3I)C[C@@]2(O)CO)cc1F [Example 119, 2-fluoro-4-(((3S,4R)-4-hydroxy-4-(hydroxymethyl)-1-((2-iodophenyl)sulfonyl)pyrrolidin-3-yl)oxy)benzonitrile]
0.1 to 10 | N#Cc1ccc(O[C@H]2CN(S(=O)(=O)c3ccc(Cl)cc3Br)C[C@@]2(O)CO)cc1F [Example 120, 4-(((3S,4R)-1-((2-bromo-4-chlorophenyl)sulfonyl)-4-hydroxy-4-(hydroxymethyl)pyrrolidin-3-yl)oxy)-2-fluorobenzonitrile]
10 to 100 | N#Cc1ccc(O[C@H]2CN(S(=O)(=O)c3ccc(Br)cc3C(F)(F)F)C[C@@]2(O)CO)cc1F [Example 121, 4-(((3S,4R)-1-((4-bromo-2-(trifluoromethyl)phenyl)sulfonyl)-4-hydroxy-4-(hydroxymethyl)pyrrolidin-3-yl)oxy)-2-fluorobenzonitrile]
0.1 to 10 | N#Cc1ccc(O[C@H]2CN(S(=O)(=O)c3cccnc3OC(F)F)C[C@@]2(O)CO)cc1F [Example 122, 4-(((3S,4R)-1-((2-(difluoromethoxy)pyridin-3-yl)sulfonyl)-4-hydroxy-4-(hydroxymethyl)pyrrolidin-3-yl)oxy)-2-fluorobenzonitrile]
10 to 100 | Cn1ncc(Br)c1S(=O)(=O)N1C[C@H](Oc2ccc(C#N)c(F)c2)[C@](O)(CO)C1 [Example 123, 4-(((3S,4R)-1-((4-bromo-1-methyl-1H-pyrazol-5-yl)sulfonyl)-4-hydroxy-4-(hydroxymethyl)pyrrolidin-3-yl)oxy)-2-fluorobenzonitrile]
10 to 100 | O=S(=O)(c1ccc(C(F)(F)F)cc1F)N1C[C@H](Oc2ccc3nonc3c2)[C@](O)(CO)C1 [Example 125, (3R,4S)-4-(benzo[c][1,2,5]oxadiazol-5-yloxy)-1-((2-fluoro-4-(trifluoromethyl)phenyl)sulfonyl)-3-(hydroxymethyl)pyrrolidin-3-ol]
10 to 100 | N#Cc1ccc(O[C@H]2CN(S(=O)(=O)c3ccc(Cl)c(OC(F)(F)F)c3)C[C@@]2(O)CO)cc1F [Example 129, 4-(((3S,4R)-1-((4-chloro-3-(trifluoromethoxy)phenyl)sulfonyl)-4-hydroxy-4-(hydroxymethyl)pyrrolidin-3-yl)oxy)-2-fluorobenzonitrile]
10 to 100 | N#Cc1ccc(O[C@H]2CN(S(=O)(=O)c3ccc(I)cn3)C[C@@]2(O)CO)cc1F [Example 130, 2-fluoro-4-(((3S,4R)-4-hydroxy-4-(hydroxymethyl)-1-((5-iodopyridin-2-yl)sulfonyl)pyrrolidin-3-yl)oxy)benzonitrile]
10 to 100 | Cc1nc(C#N)ccc1S(=O)(=O)N1C[C@H](Oc2ccc(C#N)c(F)c2)[C@](O)(CO)C1 [Example 131, 5-(((3R,4S)-4-(4-cyano-3-fluorophenoxy)-3-hydroxy-3-(hydroxymethyl)pyrrolidin-1-yl)sulfonyl)-6-methylpicolinonitrile]
10 to 100 | N#Cc1ccc(O[C@H]2CN(S(=O)(=O)c3cccc(OC(F)(F)F)n3)C[C@@]2(O)CO)cc1F [Example 132, 2-fluoro-4-(((3S,4R)-4-hydroxy-4-(hydroxymethyl)-1-((6-(trifluoromethoxy)pyridin-2-yl)sulfonyl)pyrrolidin-3-yl)oxy)benzonitrile]
10 to 100 | N#Cc1ccc(O[C@H]2CN(S(=O)(=O)c3ccc(OCC(F)(F)F)nn3)C[C@@]2(O)CO)cc1F [Example 133, 2-fluoro-4-(((3S,4R)-4-hydroxy-4-(hydroxymethyl)-1-((6-(2,2,2-trifluoroethoxy)pyridazin-3-yl)sulfonyl)pyrrolidin-3-yl)oxy)benzonitrile]
10 to 100 | N#Cc1ccc(O[C@H]2CN(S(=O)(=O)c3cccc(OC(F)F)n3)C[C@@]2(O)CO)cc1F [Example 134, 4-(((3S,4R)-1-((6-(difluoromethoxy)pyridin-2-yl)sulfonyl)-4-hydroxy-4-(hydroxymethyl)pyrrolidin-3-yl)oxy)-2-fluorobenzonitrile]
0.1 to 10 | N#Cc1ccc(O[C@H]2CN(S(=O)(=O)c3ccc(C(F)(F)F)cc3C#N)C[C@]2(O)CO)cc1F [Example 135, 4-(((3S,4S)-1-((2-cyano-4-(trifluoromethyl)phenyl)sulfonyl)-4-hydroxy-4-(hydroxymethyl)pyrrolidin-3-yl)oxy)-2-fluorobenzonitrile]
0.1 to 10 | N#Cc1ccc(O[C@H]2CN(S(=O)(=O)c3ccc(F)cc3C#N)C[C@]2(O)CO)cc1F [Example 138, 4-(((3S,4S)-1-((2-cyano-4-fluorophenyl)sulfonyl)-4-hydroxy-4-(hydroxymethyl)pyrrolidin-3-yl)oxy)-2-fluorobenzonitrile]
0.1 to 10 | N#Cc1ccc(O[C@H]2CN(S(=O)(=O)c3ccc(Cl)cc3C#N)C[C@]2(O)CO)cc1F [Example 139, 4-(((3S,4S)-1-((4-chloro-2-cyanophenyl)sulfonyl)-4-hydroxy-4-(hydroxymethyl)pyrrolidin-3-yl)oxy)-2-fluorobenzonitrile]
0.1 to 10 | N#Cc1ccc(O[C@H]2CN(S(=O)(=O)c3ccc(Br)cc3C#N)C[C@]2(O)CO)cc1F [Example 143, 4-(((3S,4S)-1-((4-bromo-2-cyanophenyl)sulfonyl)-4-hydroxy-4-(hydroxymethyl)pyrrolidin-3-yl)oxy)-2-fluorobenzonitrile]
